target: T1, AhR (Homo sapiens, UniProt P35869); test: AhR direct luciferase reporter assay in HepG2 cells (HepG2 CYP1A1-LUC); assay type: cell-based; conditions: luciferase activity after 18 hours, medium with no exogenous AhR agonist or 10 nM VAF347, read-out: AhR potency (AhR antagonistic potency, IC50 class)
T1 construct: The HepG2 CYP1A1-Luc cells do express basal luciferase activity that can be increased via potent AhR agonists or decreased via potent AhR antagonists; endogenous in cells
T1 sequence (P35869 11-848): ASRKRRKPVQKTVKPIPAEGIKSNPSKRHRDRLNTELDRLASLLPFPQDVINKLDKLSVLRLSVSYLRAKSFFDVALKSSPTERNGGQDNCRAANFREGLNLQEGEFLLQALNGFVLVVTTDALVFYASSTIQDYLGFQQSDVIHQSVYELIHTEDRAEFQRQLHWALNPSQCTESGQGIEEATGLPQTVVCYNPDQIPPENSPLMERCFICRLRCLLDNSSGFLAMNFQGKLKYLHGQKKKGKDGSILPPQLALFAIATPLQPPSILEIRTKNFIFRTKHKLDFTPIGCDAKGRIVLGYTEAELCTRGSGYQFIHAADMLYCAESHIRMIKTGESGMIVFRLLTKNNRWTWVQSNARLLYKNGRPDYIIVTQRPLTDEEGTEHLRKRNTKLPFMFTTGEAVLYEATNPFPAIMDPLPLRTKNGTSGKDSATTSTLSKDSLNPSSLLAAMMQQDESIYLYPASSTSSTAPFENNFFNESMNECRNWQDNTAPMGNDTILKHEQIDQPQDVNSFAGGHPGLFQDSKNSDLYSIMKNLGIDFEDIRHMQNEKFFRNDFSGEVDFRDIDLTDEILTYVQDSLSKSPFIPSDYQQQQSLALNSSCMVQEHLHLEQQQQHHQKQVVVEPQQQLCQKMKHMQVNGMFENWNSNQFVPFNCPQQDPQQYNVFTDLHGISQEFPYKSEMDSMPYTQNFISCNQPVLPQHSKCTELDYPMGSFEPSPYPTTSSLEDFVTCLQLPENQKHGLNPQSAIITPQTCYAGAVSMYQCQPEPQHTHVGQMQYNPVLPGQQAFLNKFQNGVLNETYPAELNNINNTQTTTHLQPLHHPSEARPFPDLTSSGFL
Text: AhR Direct Luciferase Reporter Assay in HepG2 Cells
A stable cell line (HepG2 CYP1A1-LUC) was used in which part of the promoter region of the human CYP1A1 gene is stably integrated into the genome of human HepG2 hepatocytes (DSZM #ACC 180) in front of a Photinus pyralis Firefly Luciferase gene. A 1210 bp fragment comprising part of the human CYP1A1 promoter was isolated via SacI and BgIII restriction digestion from Lightswitch Clone S714555 (SwitchGearGenomics) and inserted between the SacI and BgIII sites in pGL4.30 (Promega #E8481) in front of the Firefly Luciferase gene. The resulting vector was linearized with NotI, transfected into HepG2 cells (DSMZ #ACC 180) and stably transfected clones selected with 250 μg/ml Hygromycin B. After repetitive rounds of subcloning and testing for robustly regulated luciferase activity after AhR agonist stimulation, a stable clonal HepG2 CYP1A1-Luc cell line was selected.
The HepG2 CYP1A1-Luc cells do express basal luciferase activity that can be increased via potent AhR agonists or decreased via potent AhR antagonists, added to the growth medium of the cells.
In typical reporter assays performed with this cell line, cells are grown in 96-well plates and AhR modulators are titrated into the growth medium in serial dilutions in RPMI-1640 Medium (Sigma #R7509) supplemented with 8,6% fetal calf serum (Sigma #F7524) and containing either no exogenous AhR agonist or 10 nM of the potent AhR agonist VAF347 (Calbiochem #182690). Cells are further cultivated for 18 hours and luciferase activities are determined from extracts of cells in buffers containing D-Luciferine and ATvP using a LUMIstar Optima microplate Luminometer from BMG Labtech.

| Compound | IC50 [nM] |
| --- | --- |
| CCc1ccccc1-c1cc2ccc(NC(=O)c3ncnn3C)nc2[nH]1 [4/1] | < 100 |
| Cn1ncnc1C(=O)Nc1ccc2cc(-c3ccccc3C#N)[nH]c2n1 [4/2] | 100 to 1000 |
| Cn1ncnc1C(=O)Nc1ccc2cc(-c3cc(F)ccc3C#N)[nH]c2n1 [4/3] | 100 to 1000 |
| Cn1ccnc1C(=O)Nc1ccc2cc(-c3ccccc3C(F)F)[nH]c2n1 [4/4] | < 100 |
| Cn1ncnc1C(=O)Nc1ccc2c(F)c(-c3ccccc3C(F)F)[nH]c2n1 [4/6] | 100 to 1000 |
| CCn1ncnc1C(=O)Nc1ccc2cc(-c3ccccc3C(F)F)[nH]c2n1 [4/7] | < 100 |
| Cn1ncnc1C(=O)Nc1ccc2cc(-c3cc(C#N)ccc3C(F)(F)F)[nH]c2n1 [4/8] | < 100 |
| Cc1ocnc1C(=O)Nc1ccc2cc(-c3ccccc3C(F)F)[nH]c2n1 [5/1] | < 100 |
| Cc1scnc1C(=O)Nc1ccc2cc(-c3ccccc3C(F)F)[nH]c2n1 [5/2] | < 100 |
| Cc1ccccc1-c1cc2ccc(NC(=O)c3ccnn3C)nc2[nH]1 [Example 1, 1-Methyl-N-(2-(o-tolyl)-1H-pyrrolo[2,3-b]pyridin-6-yl)-1H-pyrazole-5-carboxamide] | < 100 |
| Cn1nccc1C(=O)Nc1ccc2cc(-c3ccccc3C(F)(F)F)[nH]c2n1 [Example 1/1, 1-Methyl-N-(2-(2-(trifluoromethyl)phenyl)-1H-pyrrolo[2,3-b]pyridin-6-yl)-1H-pyrazole-5-carboxamide] | < 100 |
| Cn1nccc1C(=O)Nc1ccc2cc(-c3cccc(C(F)(F)F)c3)[nH]c2n1 [Example 1/2, 1-Methyl-N-(2-(3-(trifluoromethyl)phenyl)-1H-pyrrolo[2,3-b]pyridin-6-yl)-1H-pyrazole-5-carboxamide] | 100 to 1000 |
| Cn1nccc1C(=O)Nc1ccc2cc(-c3cccnc3C(F)(F)F)[nH]c2n1 [Example 1/3, 1-Methyl-N-(2-(2-(trifluoromethyl)pyridin-3-yl)-1H-pyrrolo[2,3-b]pyridin-6-yl)-1H-pyrazole-5-carboxamide] | 100 to 1000 |
| Cn1nccc1C(=O)Nc1ccc2cc(-c3ccccc3OC(F)(F)F)[nH]c2n1 [Example 1/4, 1-Methyl-N-(2-(2-(trifluoromethoxy)phenyl)-1H-pyrrolo[2,3-b]pyridin-6-yl)-1H-pyrazole-5-carboxamide] | > 1000 |
| Cn1nccc1C(=O)Nc1ccc2cc(-c3cccc(OC(F)(F)F)c3)[nH]c2n1 [Example 1/5, 1-Methyl-N-(2-(3-(trifluoromethoxy)phenyl)-1H-pyrrolo[2,3-b]pyridin-6-yl)-1H-pyrazole-5-carboxamide] | > 1000 |
| Cn1ncnc1C(=O)Nc1ccc2cc(-c3ccccc3C(F)(F)F)[nH]c2n1 [Example 1/6, 1-Methyl-N-(2-(2-(trifluoromethyl)phenyl)-1H-pyrrolo[2,3-b]pyridin-6-yl)-1H-1,2,4-triazole-5-carboxamide] | < 100 |
| O=C(Nc1ccc2cc(-c3ccccc3C(F)(F)F)[nH]c2n1)c1ccccn1 [Example 1/7, N-(2-(2-(Trifluoromethyl)phenyl)-1H-pyrrolo[2,3-b]pyridin-6-yl) picolinamide] | < 100 |

| Compound | IC50 [nM] |
| --- | --- |
| O=C(Nc1ccc2cc(-c3ccccc3C(F)(F)F)[nH]c2n1)c1ccccc1F [Example 1/8, 2-Fluoro-N-(2-(2-(trifluoromethyl)phenyl)-1H-pyrrolo[2,3-b]pyridin-6-yl)benzamide] | < 100 |
| O=C(Nc1ccc2cc(-c3ccccc3C(F)(F)F)[nH]c2n1)c1ccc(F)cc1 [Example 1/9, 4-Fluoro-N-(2-(2-(trifluoromethyl)phenyl)-1H-pyrrolo[2,3-b]pyridin-6-yl)benzamide] | < 100 |
| O=C(Nc1ccc2cc(-c3ccccc3C(F)(F)F)[nH]c2n1)c1cccnc1 [Example 1/10, N-(2-(2-(Trifluoromethyl)phenyl)-1H-pyrrolo[2,3-b]pyridin-6-yl) nicotinamide] | 100 to 1000 |
| Cn1ncnc1C(=O)Nc1ccc2cc(-c3cccc(F)c3C(F)(F)F)[nH]c2n1 [Example 1/11, N-(2-(3-Fluoro-2-(trifluoromethyl)phenyl)-1H-pyrrolo[2,3-b]pyridin-6-yl)-1-methyl-1H-1,2,4-triazole-5-carboxamide] | < 100 |
| Cn1ncnc1C(=O)Nc1ccc2cc(-c3cc(F)ccc3C(F)(F)F)[nH]c2n1 [Example 1/12, N-(2-(5-Fluoro-2-(trifluoromethyl)phenyl)-1H-pyrrolo[2,3-b]pyridin-6-yl)-1-methyl-1H-1,2,4-triazole-5-carboxamide] | < 100 |
| Cn1ncnc1C(=O)Nc1ccc2cc(-c3cccc4ccccc34)[nH]c2n1 [Example 1/13, 1-Methyl-N-(2-(naphthalen-1-yl)-1H-pyrrolo[2,3-b]pyridin-6-yl)-1H-1,2,4-triazole-5-carboxamide] | < 100 |
| Cn1ncnc1C(=O)Nc1ccc2cc(-c3ccc(F)cc3C(F)(F)F)[nH]c2n1 [Example 1/14, N-(2-(4-Fluoro-2-(trifluoromethyl)phenyl)-1H-pyrrolo[2,3-b]pyridin-6-yl)-1-methyl-1H-1,2,4-triazole-5-carboxamide] | < 100 |
| Cn1ncnc1C(=O)Nc1ccc2cc(-c3ccccc3C(F)F)[nH]c2n1 [Example 1/15, N-(2-(2-(Difluoromethyl)phenyl)-1H-pyrrolo[2,3-b]pyridin-6-yl)-1-methyl-1H-1,2,4-triazole-5-carboxamide] | < 100 |
| Cn1ncnc1C(=O)Nc1ccc2cc(-c3cccc4c3CCC4)[nH]c2n1 [Example 1/16, N-(2-(2,3-Dihydro-1H-inden-4-yl)-1H-pyrrolo[2,3-b]pyridin-6-yl)-1-methyl-1H-1,2,4-triazole-5-carboxamide] | < 100 |
| Cn1ncnc1C(=O)Nc1ccc2cc(-c3ncccc3C(F)(F)F)[nH]c2n1 [Example 1/17, 1-Methyl-N-(2-(3-(trifluoromethyl)pyridin-2-yl)-1H-pyrrolo[2,3-b]pyridin-6-yl)-1H-1,2,4-triazole-5-carboxamide] | > 1000 |
| COc1ccccc1-c1cc2ccc(NC(=O)c3ncnn3C)nc2[nH]1 [Example 1/18, N-(2-(2-Methoxyphenyl)-1H-pyrrolo[2,3-b]pyridin-6-yl)-1-methyl-11H-1,2,4-triazole-5-carboxamide] | 100 to 1000 |
| O=C(Nc1ccc2cc(-c3ccccc3C(F)(F)F)[nH]c2n1)c1cc2ccoc2cn1 [Example 1/19, N-(2-(2-(Trifluoromethyl)phenyl)-1H-pyrrolo[2,3-b]pyridin-6-yl)furo[2,3-c]pyridine-5-carboxamide] | 100 to 1000 |
| Cc1nonc1C(=O)Nc1ccc2cc(-c3ccccc3C(F)(F)F)[nH]c2n1 [Example 1/20, 4-Methyl-N-(2-(2-(trifluoromethyl)phenyl)-1H-pyrrolo[2,3-b]pyridin-6-yl)-1,2,5-oxadiazole-3-carboxamide] | < 100 |
| Cn1cnnc1C(=O)Nc1ccc2cc(-c3ccccc3C(F)(F)F)[nH]c2n1 [Example 1/21, 4-Methyl-N-(2-(2-(trifluoromethyl)phenyl)-1H-pyrrolo[2,3-b]pyridin-6-yl)-4H-1,2,4-triazole-3-carboxamide] | 100 to 1000 |
| O=C(Nc1ccc2cc(-c3ccccc3C(F)(F)F)[nH]c2n1)c1ncc2ccccn12 [Example 1/22, N-(2-(2-(trifluoromethyl)phenyl)-1H-pyrrolo[2,3-b]pyridin-6-yl)imidazo[1,5-a]pyridine-3-carboxamide] | < 100 |
| Cn1ncnc1C(=O)Nc1ccc2cc(-c3ccccc3S(C)(=O)=O)[nH]c2n1 [Example 1/23, 1-Methyl-N-(2-(2-(methylsulfonyl)phenyl)-1H-pyrrolo[2,3-b]pyridin-6-yl)-1H-1,2,4-triazole-5-carboxamide] | > 1000 |
| Cn1ncnc1C(=O)Nc1ccc2cc(-c3ccc(C(F)F)cc3)[nH]c2n1 [Example 1/25, N-(2-(4-(Difluoromethyl)phenyl)-1H-pyrrolo[2,3-b]pyridin-6-yl)-1-methyl-1H-1,2,4-triazole-5-carboxamide] | < 100 |

From patent US10981908B2, “Aryl hydrocarbon receptor (AHR) modulator compounds” (PHENEX PHARMACEUTICALS AG, priority 2017, dated 2021)
